Measurements as given in patent US20040209850A1, “Methods of treating pain and compositions for use therefor” (TheraQuest Biosciences, LLC, priority 2003, published 2004).

Experiments:
[1] = tested on: mouse; assay: Chemically-induced (acetic acid) abdominal constrictions in the mouse; assay type: in vivo; details: mean ± S.E.M.
Method: Albuterol or vehicle 1 was dosed intraperitoneally (−25 min), followed by a subcutaneous dose of indomethacin or vehicle 2 (−20 min), prior to acetic acid (0.7% v/v) administration (0 min).

[2] = tested on: rat; assay: Tail-flick test: antinociception of albuterol, morphine and morphine plus albuterol (% MPE, A50); assay type: in vivo
Text: The tail flick test was first described by D'Amour and Smith (1941), and remains essentially unchanged in application. (See generally D'Amour, F. E. and Smith, D. L., “A method for determining loss of pain sensation”, J. Pharmacol. Exp. Therap., 72:74-79(1941); Dewey, D. L. and Harris, L. S., The Tail-flick test. In: S. Ehrenpreis and A. Neidle (Eds.), Methods in Narcotic Research, Marcel Dekker, Inc., New York, 1975, pp. 101-109; and Dubner, R. and Ren, K., “Assessing transient and persistent pain in animals.” In: P. D. Wall and R. Melzack (Eds.), Textbook of Pain, Churchill Livingstone, London, 1999, pp. 359-369). Quite simply, the tail of a rat or mouse is exposed to radiant heat, and the latency to withdraw is determined. The basal heat intensity is set so that naive rats withdraw their tails within 2 to 3 sec. A cut-off latency of 10 sec (i.e., 3 to 4 times basal control value) is commonly employed to prevent tissue damage. An alternative to using radiant heat is to dip the tail into a water bath maintained at a fixed temperature, usually in the moderately noxious range of about 52° C. or 55° C. One advantage of a water bath is that the temperature is kept constant.
The tail-flick test is considered to be very robust in that weak analgesic agents are not detected by this test. […] It is even possible to perform the tail-flick test in lightly anesthetized animals.
Data obtained from the rat tail-flick test conform to a graded dose-response curve. The raw tail withdrawal latencies are converted to a % MPE (% maximal possible effect) by the formula:
% MPE=100×(test latency−basal latency)/(cut-off−basal latency).
This formula constrains the data to fit between 0% MPE and 100% MPE. […] These calculations then allow for the determination of relative potencies of different drugs and allow for the isobolographic determination of possible synergistic effects. Instances where the test latency is less than the basal latency produces a negative % MPE, which is meaningless unless one is measuring hyperalgesia.
Absent any interaction, the dose-effect curves for morphine alone and in the presence of albuterol should be identical.
This manipulation allowed the construction of dose-effect curves and more importantly, the calculation of the A50 (dose required to produce a 50% effect) and the confidence intervals. The data were converted to % MPE based on the equation:
% MPE=(response−baseline)/(8.2−baseline)×100.
Baseline refers to the pre-treatment tail-flick latencies, and 8.2 represents the maximal effect. […] The A50 values and confidence intervals for each of the dose-effect curves were determined from linear regression analysis of the logdose-effect curves. Significant shifts in the dose-effect curves were indicated by Student's t-statistic applied to the A50 values obtained for morphine and morphine plus albuterol, and was performed with our custom-designed data analysis software.
The SEM values are approximate and are derived as a ratio of the SEM of the raw data to the respective mean and adjusted as a function of % MPE.

COc1ccc2c(c1)c(CC(=O)O)c(C)n2C(=O)c1ccc(Cl)cc1 [Indomethacin]
Number of Abdominal Constrictions Exhibited in Time Period (min) Post Acetic Acid ([1]; indomethacin 0.1 mg/kg s.c., 5-10 min): 14.3 ± 2.6
Number of Abdominal Constrictions Exhibited in Time Period (min) Post Acetic Acid ([1]; indomethacin 0.1 mg/kg s.c., 5-15 min): 23.6 ± 3.7
Number of Abdominal Constrictions Exhibited in Time Period (min) Post Acetic Acid ([1]; indomethacin 1 mg/kg s.c., 5-10 min): 7.5 ± 2.0
Number of Abdominal Constrictions Exhibited in Time Period (min) Post Acetic Acid ([1]; indomethacin 1 mg/kg s.c., 5-15 min): 14.5 ± 2.9
Number of Abdominal Constrictions Exhibited in Time Period (min) Post Acetic Acid ([1]; indomethacin 3 mg/kg s.c., 5-10 min): 6.8 ± 1.7
Number of Abdominal Constrictions Exhibited in Time Period (min) Post Acetic Acid ([1]; indomethacin 3 mg/kg s.c., 5-15 min): 12.2 ± 3.1
Number of Abdominal Constrictions Exhibited in Time Period (min) Post Acetic Acid ([1]; indomethacin 5 mg/kg s.c., 5-10 min): 8.3 ± 2.0
Number of Abdominal Constrictions Exhibited in Time Period (min) Post Acetic Acid ([1]; indomethacin 5 mg/kg s.c., 5-15 min): 14.1 ± 3.4
Number of Abdominal Constrictions Exhibited in Time Period (min) Post Acetic Acid ([1]; indomethacin 10 mg/kg s.c., 5-10 min): 6.8 ± 1.7
Number of Abdominal Constrictions Exhibited in Time Period (min) Post Acetic Acid ([1]; indomethacin 10 mg/kg s.c., 5-15 min): 11.9 ± 2.9
Number of Abdominal Constrictions Exhibited in Time Period (min) Post Acetic Acid ([1]; indomethacin 30 mg/kg s.c., 5-10 min): 10.5 ± 2.3
Number of Abdominal Constrictions Exhibited in Time Period (min) Post Acetic Acid ([1]; indomethacin 30 mg/kg s.c., 5-15 min): 17.6 ± 3.2
Number of Abdominal Constrictions Exhibited in Time Period (min) Post Acetic Acid ([1]; indomethacin 50 mg/kg s.c., 5-10 min): 1.4 ± 0.6
Number of Abdominal Constrictions Exhibited in Time Period (min) Post Acetic Acid ([1]; indomethacin 50 mg/kg s.c., 5-15 min): 4.5 ± 1.3

CN1CC[C@]23c4c5ccc(O)c4O[C@H]2[C@@H](O)C=C[C@H]3[C@H]1C5 [Morphine]
A50 (95% confidence interval), dose required to produce a 50% effect ([2]; 30 minutes after injection): 4.53 mg/kg
A50 (95% confidence interval), dose required to produce a 50% effect ([2]; 30 minutes after injection, listed as Morphine alone): 4.53 (3.92 to 5.24) mg/kg
A50 (95% confidence interval), dose required to produce a 50% effect ([2]; 60 minutes after injection): 9.94 mg/kg
A50 (95% confidence interval), dose required to produce a 50% effect ([2]; 60 minutes after injection, listed as Morphine alone): 9.94 (9.84 to 10.04) mg/kg
dose-dependency of antinociception (FIG. 1) ([2]; dose-effect curves as % MPE): demonstrated dose-dependent antinociception
antinociceptive effect (in words) ([2]; morphine 0.3 mg/kg to 2.5 mg/kg): minimal effects
Antinociceptive effect (as % MPE) ([2]; morphine alone 0.3125 mg/kg, 30 minutes): 25.86 ± 3.31 % MPE
Antinociceptive effect (as % MPE) ([2]; morphine alone 0.3125 mg/kg, 60 minutes): 24.14 ± 1.27 % MPE
Antinociceptive effect (as % MPE) ([2]; morphine alone 0.625 mg/kg, 30 minutes): 22.41 ± 1.82 % MPE
Antinociceptive effect (as % MPE) ([2]; morphine alone 0.625 mg/kg, 60 minutes): 20.69 ± 1.72 % MPE
Antinociceptive effect (as % MPE) ([2]; morphine alone 1.25 mg/kg, 30 minutes): 33.33 ± 2.27 % MPE
Antinociceptive effect (as % MPE) ([2]; morphine alone 1.25 mg/kg, 60 minutes): 19.3 ± 2.14 % MPE
Antinociceptive effect (as % MPE) ([2]; morphine alone 2.5 mg/kg, 30 minutes): 28.57 ± 2.04 % MPE
Antinociceptive effect (as % MPE) ([2]; morphine alone 2.5 mg/kg, 60 minutes): 21.43 ± 1.69 % MPE
Antinociceptive effect (as % MPE) ([2]; morphine alone 5 mg/kg, 30 minutes): 44.07 ± 3.6 % MPE
Antinociceptive effect (as % MPE) ([2]; morphine alone 5 mg/kg, 60 minutes): 13.56 ± 2.19 % MPE
Antinociceptive effect (as % MPE) ([2]; morphine alone 10 mg/kg, 30 minutes): 91.07 ± 14.19 % MPE
Antinociceptive effect (as % MPE) ([2]; morphine alone 10 mg/kg, 60 minutes): 50 ± 9.26 % MPE
